Structures are written as SMILES.

In one assay the test system is MelJuSo melanoma cells. The assay is described as follows: MTS cell viability assay, MelJuSo. Type of assay: cell-based. To be noted: Homo sapiens, MEL-JUSO, 24 h, read-out: IC50 (concentration reducing number of viable cells by 50%). As to the method:
Cells were cultured at indicated densities for 24 h, medium was removed and the incubation was continued in a fresh culture medium containing various GC2 or DTIC concentrations. In control experiments, cells were grown in a culture medium containing GC2 buffer.
The standard […] (MTS)-3-(4,5-dimethylthiazol-2-yl)-5-(3-carboxymethoxyphenyl)-2-(4-sulphophenyl)-2H-tetrazolium inner salt solution assay was performed in order to examine the cytotoxic/cytostatic effect of GC2 on melanoma cells. Briefly, 7.5×10^3 cells were seeded in 96-well microtiter plates (Nunc). After an overnight incubation, serial dilutions of GC2 or DTIC were added in triplicate to a final volume of 100 μl. The blank was represented by a culture medium without cells containing the highest GC2 or DTIC concentration. After 24 h of incubation 20 μl MTS was added to each well and all samples were incubated for 3 h at 37° C. An absorbance of each well was read at 450 nm in a microplate reader. A percentage of cell viability was calculated considering that 100% cell viability was represented by an absorbance of untreated samples […]. Alternatively, the number of viable cells was determined by Trypan blue exclusion test. Melanoma cells treated with GC2 were trypsinized and cells negative for blue staining (viable cells) were counted using a hemocytometer. […]

A further assay deals with MNT-1 cells. Briefly: Annexin V/PI double labeling, flow cytometry, MNT-1. Particulars: MNT-1, 6 μM. Type of assay: cell-based. The protocol: Apoptosis in GC2-treated melanoma cells was detected using Annexin V and PI double labeling assay, see van Engeland, M., et al., Cytometry, 31, 1-9, 1998. Annexin V/PI labeling was applied to both fluorescence microscopy and flow cytometry following the protocol supplied by the manufacturer. Briefly, for fluorescence microscopy analysis adherent cells (approximately 16×10^4) treated with GC2 were washed with annexin V binding buffer, and incubated with Alexa Fluor® 488 Annexin V (5 μl in 1 ml annexin V binding buffer) for 15 min at RT, in the dark, to which 0.2 μg PI was added. Live cells were washed with annexin V binding buffer and examined by microscopy. For flow cytometric analysis, cells treated with GC2 were harvested by trypsinisation and a number of viable cells was counted. 16×10^4 cells were re-suspended in 0.2 ml annexin V binding buffer and treated in the same were adherent cells. Finally, labeled cells were analyzed with a FACScan™ using CellQuest™ software (Becton Dickinson, San Jose, Calif.).
Cells cultured under normal conditions for 24 h were further treated for 5 h, 8 h or 24 h with 6 μM of GC2, labeled with annexin V and PI and quantitatively analyzed by flow cytometry for viable, apoptotic and necrotic populations (FIG. 7).
In general terms: A flow cytometer gives signals particle by particle.

Another assay concerns MelJuSo cells. The assay is described as follows: Autophagic vesicle detection with GFP-LC3. The format is cell-based, human. To be noted: MelJuSo transfected with GFP-LC3, 6 μM. As to the method: LC3 is a protein recruited to an autophagosome membrane. The recruitment process is essential for autophagy and LC3 is a specific marker of the process, see Kabeya Y., et al., EMBO J. 19, 5720-5728, 2000. […] Cells were transiently transfected with GFP-LC3 plasmid DNA using the liposomal transfection kit Lipofectamine PLUS™ Reagent (Gibco-BRL) as described in Negroiu, G., et al., J. Biol. Chem. 278, 27035-27042, 2003. 24 h after transfection cells were treated with GC2 for the indicated time periods and analyzed by fluorescence microscopy.
The localization of LC3 (microtubule-associated protein1 light chain 3), which is an established marker for autophagosome membranes, see e.g. Kabeya, Y., et al. EMBO J., 19, 5720-5728, 2000, was examined in cells treated with GC2. LC3 is newly synthetised and recruited to autophagosomal membranes when autophagy is activated and is detected as cup- and ring shaped structures, see e.g. Mizushima, N. et al. Int. J. Biochem. & Cell Biol. 36, 2491-2502, 2004. […] In GC2-treated MNT-1 cells, very few vacuoles were observed by a phase contrast microscopy. The MNT-1 cell line was also the least positive for autophagic marker (data not shown).

Consider `CC(=O)O.CCCCCCCCCN1[C@@H](CO)[C@@H](O)[C@H](O)[C@@H]1CCCCCCCC` [GC2, (2S,3R,4R,5S)-3,4-dihydroxy-N-nonyl-5-octyl-2 hydroxymethylpyrrolidinium acetate], for which, in the assay with MelJuSo melanoma cells, the IC50 lay in the range of 7 to 8 µM. Also, the “increase of apoptotic population versus control” value in the assay with MNT-1 cells (5 h) is recorded as “doubled”. Besides, the entries for the “increase of necrotic fraction versus control (factor)” value in the assay on MNT-1 cells (5 h), with MNT-1 cells (8 h) and in the assay with MNT-1 cells (24 h) were 2.3, 2.9 and 9.5, respectively. Besides, the apoptotic population in the assay on MNT-1 cells (5 h, control 3.29%) was determined as 6.94%; in the assay with MNT-1 cells (8 h, control 4.32%) it was 15.49%; in the assay with MNT-1 cells (24 h, control 3.25%), 24.86%. The necrotic fraction in the assay with MNT-1 cells (5 h, control 4.24%) is listed as 10.07%; in the assay with MNT-1 cells (8 h, control 5.84%), 17.25%; with MNT-1 cells (24 h, control 2.07%) it was 19.18%. In addition, the “increase of apoptotic population versus control (times)” value is on record as 3.5 with MNT-1 cells (8 h) and 7.6 in the assay on MNT-1 cells (24 h). The “GFP-LC3 distribution (autophagic marker)” value with MelJuSo cells was “punctate pattern of bright fluorescence”.

The record behind these values is patent US8957106B2, “Iminosugar treatment of tumors” (The Chancellor, Masters and Scholars of the University of …, priority 2007, dated 2015).
